Measured values published in patent publication US12215106B2, “Pharmaceutical compounds and therapeutic methods” (RUTGERS, THE STATE UNIVERSITY OF NEW JERSEY, priority 2018, dated 2025).
Counter-ions that a name gives are not always drawn.

Tested on: GBM cells
Assay: Cell viability dose response in GBM cells (Vi-CELL, CellTiter-Glo)
Type: cell-based
Settings: compared with controls (DMSO and Temozolomide)
Experimental: Small molecules were synthesized by the Molecular Design and Synthesis laboratory, Rutgers Translational Sciences at Rutgers University, NJ, USA. To compare the effects of Exemplary Compound 14 to Comparative Example 100, cells (3×10^5/well) were seeded into the 96-well tissue culture plates and treated with different BMI1 inhibitors (from 10 nM to 10 μM) in appropriate media. Dose response curves were generated upon exposing GBM cells to different concentrations of Exemplary compound 14, Comparative Example 101, and Comparative Example 100 (0.010-10 μM) for 72 hours. Cells were counted using Beckman Coulter Vi-CELL Cell Viability Analyzer, and cell viability was confirmed by CellTiter-Glo Luminescent Cell Viability Assay (Promega, Madison, WI, USA) according to standard protocols and analyzed with a Victor 2 plate reader (Wallac, Turku, Finland). We then assessed the selectivity and potency in GBM cells vs primary GBM. Dose-response curves were generated in both spheres and monocultures and used to determine a sphere selectivity ratio (targeting Glioblastoma Initiating Cells), defined as EC50(U87)/EC50(spheres), for each compound.

COc1c(F)cc(Nc2nc(-c3c(C)nc4ccccn34)cs2)cc1F [Compound 14, hydrochloride]
sphere selectivity ratio EC50(U87)/EC50(spheres): high selectivity for glioblastoma cancer stem cells
